# Legend:
# [1] = Oral pharmacokinetics, all species examined; assay type: in vivo; conditions: orally administered; mice, rats, dogs, and monkeys
# Protocol: Peak plasma concentrations were achieved between 1 and 3 hours after a dose of 5 mg/kg. […] Oral availability was greatest in rodent, and was reduced in dogs and monkeys (59 and 34% respectively).
# A549 NSCLC = A549 NSCLC xenograft, tumor growth delay; assay type: in vivo, female athymic nude mice
# From the text: (§1) The models evaluated included MV522, A549 and H460 NSCLC. […] The experiments used a tumor growth delay (TGD) endpoint based on median time to endpoint, i.e., tumor volume of 1000-2000 mm^3, and treatments were compared to untreated controls using the Logrank test for statistical significance.
# in vivo = conditions: female, athymic nude, mouse, in vivo, po
# From the text: as §1
# MV522 NSCLC = assay: in vivo; conditions: MV522
# From the text: as §1
# H460 NSCLC = H460 NSCLC xenograft, tumor growth delay; assay type: in vivo, female athymic nude mice
# From the text: as §1
# [2] = cited from earlier work
# [3] = patients taking erlotinib; cited from earlier work
smiles,measurement,setting,value
CCOc1ccc(-c2cc(C)cn2-c2ccc(S(N)(=O)=O)cc2)cc1,Absorption after oral administration,[1],rapidly absorbed
same,Tumor growth delay (TGD),"A549 NSCLC; at its MTD, oral daily",24.3 days
same,"Tumor growth delay (TGD), percent","A549 NSCLC; at its MTD, oral daily",62%
same,MTD,in vivo,30 mg/kg
same,Tumor growth delay (TGD),MV522 NSCLC; 10 mg/kg oral daily,19.1 days
same,"Tumor growth delay (TGD), percent",MV522 NSCLC; 10 mg/kg oral daily,57%
same,Tumor growth delay (TGD),MV522 NSCLC; 30 mg/kg (MTD) oral daily,32.1 days
same,"Tumor growth delay (TGD), percent",MV522 NSCLC; 30 mg/kg (MTD) oral daily,96%
same,Tumor growth delay (TGD),H460 NSCLC; COX-2 inhibitor monotherapy,4.0 days
same,"Tumor growth delay (TGD), percent",H460 NSCLC; COX-2 inhibitor monotherapy,30%
CC(=O)O[C@@]12CO[C@@H]1C[C@H](O)[C@@]1(C)C(=O)[C@H](O)C3=C(C)[C@@H](OC(=O)[C@H](O)[C@@H](NC(=O)OC(C)(C)C)c4ccccc4)C[C@@](O)([C@@H](OC(=O)c4ccccc4)[C@H]21)C3(C)C [Docetaxel],Tumor growth delay (TGD),H460 NSCLC; 25 mg/kg iv weekly x3,10.8 days
same,"Tumor growth delay (TGD), percent",H460 NSCLC; 25 mg/kg iv weekly x3,80%
same,Solubility in water,[2],practically insoluble
"Cc1ccc(-c2cc(C(F)(F)F)nn2-c2ccc(S(N)(=O)=O)cc2)cc1 [celecoxib, reference compound]",Tumor growth delay (TGD),A549 NSCLC; 100 mg/kg,15.4 days
same,"Tumor growth delay (TGD), percent",A549 NSCLC; 100 mg/kg,39%
same,Tumor growth delay (TGD),H460 NSCLC; COX-2 inhibitor monotherapy,3.0 days
same,"Tumor growth delay (TGD), percent",H460 NSCLC; COX-2 inhibitor monotherapy,22%
"C#Cc1cccc(Nc2ncnc3cc(OCCOC)c(OCCOC)cc23)c1 [erlotinib, N-(3-ethynylphenyl)-6,7-bis(2-methoxyethoxy)quinazolin-4-amine]","Patients with common side effects (rash, diarrhea, poor appetite, fatigue, shortness of breath, cough, nausea and vomiting)",[3],greater than 30 % of patients

# Source: US20110301209A1, “METHODS AND COMPOSITIONS FOR THE TREATMENT OF CANCER, TUMORS, AND TUMOR-RELATED DISORDERS” (TRAGARA PHARMACEUTICALS, INC., priority 2007, published 2011)
